Several values for one entry are separate records, joined by “and”; a condition that tells them apart may be missing. Equal entries are not always repeated.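 Following 48 hours of exposure in 96-well plates, responses at five concentrations were used to interpolate endpoints linearly. At the GI50, growth is halved. TGI: concentration producing complete growth inhibition.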 Where only a bound is given, the exact number is not on record here.

Some test systems named below: U251 CNS; HS 578T breast; MALME-3M melanoma; HCC-2998 colon; SK-MEL-5 melanoma; CCRF-CEM leukemia; SN12C renal; A498 renal; LOX IMVI melanoma; HL-60(TB) leukemia.
Common to all, as to test: NCI tumour cell line growth inhibition, 48 h

For the compound `CC12CC=CCC1CCC1C2CCC2(C)C(c3ccc(=O)oc3)CCC12O` (stereo not drawn), the GI50 with U251 CNS was 127 nM; in the experiment on HS 578T breast, 33.5 nM; with MALME-3M melanoma it was 0.104 µM; with HCC-2998 colon, 374 nM; with SK-MEL-5 melanoma, 63.3 nM; with CCRF-CEM leukemia it was 37 nM. The GI50 in the experiment on SN12C renal was 0.0378 µM; in the experiment on A498 renal, 76.8 nM; in the experiment with LOX IMVI melanoma, 56.2 nM; in the experiment with HL-60(TB) leukemia, 27.2 nM. Further, the TGI turned out to be 0.337 µM with U251 CNS; 0.473 µM with HS 578T breast; 0.364 µM in the experiment with MALME-3M melanoma; 3.37 µM in the experiment on HCC-2998 colon; 0.312 µM in the experiment with SK-MEL-5 melanoma; 0.303 µM in the experiment on CCRF-CEM leukemia. Further, the TGI turned out to be 0.47 µM in the experiment on SN12C renal, 0.54 µM with A498 renal, 0.213 µM in the experiment with LOX IMVI melanoma and 0.0732 µM with HL-60(TB) leukemia.

As for `CNCCNc1nc2ccccc2c2c(=O)c3cc(F)ccc3sc12`, the GI50 was 1630 nM in the experiment on U251 CNS; 2000 nM with HS 578T breast; 1.67 µM in the experiment with MALME-3M melanoma; 1700 nM in the experiment on HCC-2998 colon; 1820 nM with SK-MEL-5 melanoma; 1680 nM in the experiment on CCRF-CEM leukemia. The GI50 in the experiment on SN12C renal was 1.61 µM; in the experiment with A498 renal, 2050 nM; in the experiment with LOX IMVI melanoma, 1570 nM; in the experiment on HL-60(TB) leukemia, 1890 nM. Moreover, the TGI with U251 CNS was 3.18 µM; in the experiment with HS 578T breast it was 4.79 µM; with MALME-3M melanoma, 3.1 µM; in the experiment on HCC-2998 colon, 3.45 µM; with SK-MEL-5 melanoma, 3.34 µM; in the experiment on CCRF-CEM leukemia it was 3.36 µM. The TGI is 3.29 µM with SN12C renal, 6.96 µM in the experiment on A498 renal, 2.98 µM in the experiment on LOX IMVI melanoma and 3.66 µM with HL-60(TB) leukemia.

Consider `COc1cc2c(c(OC)c1OC)-c1ccc(O)c(=O)cc1[C@@H](NC(C)=O)CC2`, for which the GI50 is 5930 nM in the experiment with U251 CNS; 14300 nM with HS 578T breast; 19.2 µM with MALME-3M melanoma; 7950 nM in the experiment on HCC-2998 colon; 3670 nM in the experiment on CCRF-CEM leukemia; 7.93 µM with SN12C renal. Moreover, the GI50 is 15000 nM with A498 renal, 5890 nM with LOX IMVI melanoma and 3310 nM in the experiment with HL-60(TB) leukemia. The TGI in the experiment with U251 CNS was > 100 µM and 35.4 µM; in the experiment on HS 578T breast it was > 100 µM and 71.4 µM; in the experiment with MALME-3M melanoma, 97.7 µM; with HCC-2998 colon, > 100 µM and 34.4 µM; in the experiment on SK-MEL-5 melanoma, 32.2 µM and 20.5 µM; in the experiment on CCRF-CEM leukemia it was more than 100 µM. Besides, the TGI in the experiment on SN12C renal was 88.2 µM and 35 µM; with A498 renal, > 100 µM and 44.1 µM; with LOX IMVI melanoma it was > 100 µM and 60.1 µM; in the experiment on HL-60(TB) leukemia it was 15.6 µM and 32.7 µM.

As for `COc1cc(/C=C2\CC3C4CC=C5C[C@@H](O)CC[C@]5(C)C4CC[C@]3(C)C2=O)ccc1OCCCn1ccnc1` (stereo partly drawn), the GI50 is 15000 nM with U251 CNS; 26900 nM in the experiment on HS 578T breast; 17.3 µM in the experiment on MALME-3M melanoma; 14800 nM in the experiment with HCC-2998 colon; 14100 nM in the experiment on SK-MEL-5 melanoma; 18000 nM in the experiment on CCRF-CEM leukemia. Besides, the GI50 with SN12C renal is 17 µM; in the experiment on A498 renal it was 25500 nM; in the experiment with LOX IMVI melanoma, 509 nM; in the experiment with HL-60(TB) leukemia, 19400 nM. The TGI with U251 CNS amounted to 32.8 µM; in the experiment with HS 578T breast, 53.7 µM; in the experiment on MALME-3M melanoma, 36.9 µM; in the experiment on HCC-2998 colon it was 28.3 µM; in the experiment on SK-MEL-5 melanoma it was 27 µM; in the experiment on CCRF-CEM leukemia, 34.8 µM. Further, the TGI is 33.7 µM in the experiment with SN12C renal, 44.2 µM in the experiment with A498 renal, 16.4 µM in the experiment with LOX IMVI melanoma and 37.3 µM with HL-60(TB) leukemia.

As to `CCOC(=O)Nc1nc2cc(OCC)ccc2s1`, the GI50 in the experiment with U251 CNS was 26800 nM; in the experiment on HS 578T breast, 50000 nM; in the experiment on MALME-3M melanoma, more than 100 µM; in the experiment on HCC-2998 colon, more than 41300 nM; in the experiment with SK-MEL-5 melanoma, 8440 nM; with CCRF-CEM leukemia, more than 100000 nM. Also, the GI50 in the experiment with SN12C renal is more than 84.4 µM; in the experiment on A498 renal it was 6460 nM; with LOX IMVI melanoma it was more than 47400 nM; in the experiment on HL-60(TB) leukemia, 4850 nM. Further, the TGI in the experiment with U251 CNS, in the experiment on HS 578T breast, in the experiment on MALME-3M melanoma, in the experiment on HCC-2998 colon, in the experiment on SK-MEL-5 melanoma and in the experiment with CCRF-CEM leukemia was more than 100 µM each time. Moreover, the TGI in the experiment with SN12C renal, with A498 renal, with LOX IMVI melanoma and in the experiment with HL-60(TB) leukemia was more than 100 µM in each case.

With `COC(=O)c1cc(-c2ccc(OC)cc2)[nH]c1N/N=C/c1c(Cl)cccc1Cl`, the GI50 in the experiment with U251 CNS is 292 nM; with HS 578T breast, 190 nM; in the experiment on MALME-3M melanoma, 0.316 µM; in the experiment with HCC-2998 colon, 118 nM; in the experiment with SK-MEL-5 melanoma it was 198 nM; in the experiment with CCRF-CEM leukemia it was 312 nM. Further, the GI50 was 0.507 µM in the experiment with SN12C renal, 185 nM with A498 renal, 146 nM in the experiment with LOX IMVI melanoma and 235 nM in the experiment on HL-60(TB) leukemia. Besides, the TGI turned out to be 1.82 µM with U251 CNS; 2.82 µM in the experiment with HS 578T breast; 0.536 µM in the experiment with HCC-2998 colon; 3.5 µM in the experiment with SK-MEL-5 melanoma; 3.39 µM with CCRF-CEM leukemia; 18.7 µM in the experiment with SN12C renal. The values for the TGI with A498 renal, with LOX IMVI melanoma and with HL-60(TB) leukemia were 3.43 µM, 5.42 µM and 0.574 µM, respectively.

As to `Cn1cc(C2=C(c3cn(C)c4cc(N)ccc34)C(=O)NC2=O)c2ccccc21`, the GI50 in the experiment with U251 CNS was 1410 nM; in the experiment on HS 578T breast, 1060 nM; in the experiment with MALME-3M melanoma, 11 µM; in the experiment with HCC-2998 colon it was 1500 nM; with SK-MEL-5 melanoma, 1090 nM; in the experiment on CCRF-CEM leukemia, 1020 nM. Further, the GI50 in the experiment with SN12C renal is 3.44 µM; in the experiment on A498 renal it was 944 nM; with LOX IMVI melanoma, 3100 nM; in the experiment with HL-60(TB) leukemia it was 1100 nM. Moreover, the TGI in the experiment with U251 CNS is 10.2 µM; in the experiment on HS 578T breast, more than 19.6 µM; with MALME-3M melanoma, more than 22.3 µM; in the experiment on HCC-2998 colon, more than 25 µM; in the experiment with SK-MEL-5 melanoma, 5.76 µM; in the experiment on CCRF-CEM leukemia, more than 11.2 µM. In addition, the TGI in the experiment with SN12C renal is 17 µM; in the experiment on A498 renal, 7.54 µM; with LOX IMVI melanoma, more than 25 µM; in the experiment with HL-60(TB) leukemia, 5.52 µM.

These data come from PubChem BioAssay (NCI).
